Measured values as given in paper PMC6268294, “Synthesis of Chalcones with Anticancer Activities” (Molecules, 2012).
Converted amounts (≈) assume the structure as drawn. Where two headings read alike, the source gives them in different places.

Legend:
[1] = test system: MCF-7 (breast), A549 (lung), PC3 (prostate), HT-29 (colorectal) and WRL68 (liver); experiment: MTT assay, summary over all five cell lines; format: cell-based, human; conditions: for IC50: Homo sapiens
Experimental: (§1) A549, PC3, MCF-7, HT-29, WRL68 and MCF-7 cells were obtained from the ATTC (Rockville, MD, USA) and grown in RPMI-1640 medium, 10% fetal bovine serum (FBS) and 1% pen-strep, in humidified conditions at 5% CO2 and 37 °C. The different cell lines mentioned above were used to determine the inhibitory effects of compounds on cell growth using the MTT assay. This colorimetric assay is based on the conversion of the yellow tetrazolium bromide (MTT) to a purple formazan derivative by mitochondrial succinate dehydrogenase in viable cells. Cells were seeded in 96-well plate and incubated for 24 h at 37 °C with 5% CO2 saturation. After incubation, the cells were treated with different concentration of compounds and incubated for another 24 h. After 24 h of drug treatment, 20 µL of MTT solution at 5 mg/mL was added and incubated for 4 h. Dimethyl sulfoxide (DMSO) in volume of 100 µL is added into each well to dissolve the purple formazan formed. The colorimetric assay is measured and recorded at absorbance of 570 nm.

[2] = test system: human adenocarcinoma cell line HT-29 (colorectal cancer); experiment: MTT cell viability assay, HT-29; format: cell-based; conditions: 24 h treatment
Experimental: as §1

[3] = test system: human breast adenocarcinoma cell line MCF-7; experiment: MTT cell viability assay, MCF-7; format: cell-based; conditions: MCF7, 24 h treatment
Experimental: as §1

[4] = test system: human prostate cancer cell line PC3; experiment: MTT cell viability assay, PC3; format: cell-based; conditions: 24 h treatment
Experimental: as §1

[5] = test system: human lung adenocarcinoma cell line A549; experiment: MTT cell viability assay, A549; format: cell-based; conditions: 24 h treatment
Experimental: as §1

[6] = test system: human normal liver cell line WRL-68; experiment: MTT cell viability assay, WRL68; format: cell-based; conditions: 24 h treatment
Experimental: as §1

[7] = test system: MCF-7 cells; experiment: Multiparametric high content screening (HCS) cytotoxicity/apoptosis assay; format: cell-based, human; conditions: MCF-7; compounds 2-6 µg/mL, tamoxifen 0.04 µg/mL; vs control
Experimental: Cells were treated with compound 1 (1A- 3 µg/mL; 1B- 6 µg/mL), 23 (23A- 3 µg/mL; 23B- 6 µg/mL), 25 (25A- 2 µg/mL; 25B- 4 µg/mL) and 5 (5A- 3 µg/mL; 5B- 6 µg/mL).
The toxic effects of Cpd 1, 5, 23 and 25 at different doses on MCF-7 cells were assayed using the high content screening (HCS) KineticScan Reader (Cellomics Inc, Pittsburgh, PA, USA) with the Multiparameter Cytotoxicity Kit 3. The kit contains four fluorescent dyes, i.e., blue fluorescent Hoechst 33342, membrane permeability, mitochondrial membrane potential, and cytochrome c dyes. They respectively detect changes in nuclear morphology (nuclear condensation), membrane permeability, mitochondrial membrane potential and expression of cytochrome c. The multiparametric apoptosis kit quantifies three fundamental parameters related to the process of apoptosis, i.e., nuclear condensation detected by the blue fluorescent nuclear dye, Hoechst 33342, cell permeability detected by permeability dye, mitochondrial damage detected by mitochondrial membrane potential dye and cytochrome c release by DyLight 649 Conjugates. Following treatment with different concentrations of compounds 1, 23, 25 and 5 as mentioned before, the fixation and staining for imaging analysis of the MCF-7 cells were performed according to the manufacturer’s instructions. […] Plates were analyzed using a Thermo Scientific ArrayScanHVTI HCS Reader (Cellomics Inc, Pittsburgh, PA, USA). This is a computerized automated fluorescence imaging microscope that automatically identifies stained cells and measures the intensity and distribution of fluorescence in individual cells. Images for each fluoroprobe were acquired at different channels using suitable filters with 20x objective at fixed exposure time. The Cell Health Profiling BioApplication software was used for image acquisitions and analysis. For each well, at least 25 fields, corresponding to at least 500 cells were automatically acquired and analyzed. All experiments were performed in triplicates. Cell average intensity (Mean) under the modified object mask within selected range in each channel was used as assay indicator, and reported as average fluorescence intensity.

[8] = all cell lines except for the A549 cell line, MTT, read-out: IC50 in all cell lines except A549

Structure (SMILES)	cytotoxic effect in words [1]	IC50 ([1]; all five cell lines, MTT, read-out: IC50 in all cell lines)	IC50 [2]	IC50 [3]	IC50 [4]	IC50 [5]	IC50 [6]	IC50 [1, 8]	cytotoxic effect in words ([1]; all cell lines, MTT)	cytochrome c release [7]	mitochondrial membrane potential [7]	total nuclear intensity (Hoechst 33342 nuclear chromatin staining) [7]
COc1ccc(C(=O)/C=C/c2ccccc2O)cc1 [Compound 24, 3-(2-Hydroxyphenyl)-1-(4-methoxyphenyl)-propenone]	high cytotoxicity	< 20 mg/L	11.4 ± 1 mg/L (≈ 44.9 µM)	7.15 ± 0.4 mg/L (≈ 28.1 µM)	5.58 ± 0.2 mg/L (≈ 22 µM)	14.2 ± 1 mg/L (≈ 55.7 µM)	8.72 ± 1 mg/L (≈ 34.3 µM)	–	–	–	–	–
COc1ccc(C(=O)/C=C/c2ccccc2)cc1 [Compound 4, 1-(4-Methoxyphenyl)-3-phenylpropenone]	–	–	37.3 ± 2.81 mg/L (≈ 156 µM)	19.1 ± 1 mg/L (≈ 80.4 µM)	21.1 ± 1.24 mg/L (≈ 88.7 µM)	77 ± 2.1 mg/L (≈ 323 µM)	57.3 ± 3.8 mg/L (≈ 240 µM)	–	–	–	–	–
COc1ccc(/C=C/C(=O)c2ccccc2)cc1 [Compound 13, 3-(4-Methoxyphenyl)-1-phenylpropenone]	–	–	22.8 ± 2.3 mg/L (≈ 95.6 µM)	11.62 ± 0.101 mg/L (≈ 48.8 µM)	12.1 ± 0.99 mg/L (≈ 50.7 µM)	32.6 ± 2.5 mg/L (≈ 137 µM)	21.5 ± 1.7 mg/L (≈ 90.1 µM)	–	–	–	–	–
O=C(/C=C/c1ccccc1Cl)c1ccc(O)cc1 [Compound 6, 3-(2-Chlorophenyl)-(4-hydroxyphenyl)-propenone]	–	–	15.5 mg/L (≈ 60 µM)	10 ± 1.4 mg/L (≈ 38.7 µM)	11 ± 1.8 mg/L (≈ 42.5 µM)	25.2 ± 1.21 mg/L (≈ 97.5 µM)	13.2 ± 1.3 mg/L (≈ 51.1 µM)	–	–	–	–	–
COc1ccc(/C=C/C(=O)c2ccc(O)cc2)cc1 [Compound 14, 1-(4-Hydroxyphenyl)-3-(4-methoxyphenyl)-propenone]	low cytotoxic effects	–	> 100 mg/L	> 100 mg/L	> 100 mg/L	> 100 mg/L	> 100 mg/L	–	–	–	–	–
COc1ccc(/C=C/C(=O)c2ccc(C)cc2)cc1 [Compound 15, 3-(4-Methoxyphenyl)-1-p-tolylpropenone]	–	–	29.6 ± 2.8 mg/L (≈ 117 µM)	32.4 ± 1.88 mg/L (≈ 128 µM)	43.3 ± 4.01 mg/L (≈ 171 µM)	> 100 mg/L	50.9 ± 3.51 mg/L (≈ 202 µM)	–	–	–	–	–
Cc1ccc(C(=O)/C=C/c2cccc(C)c2)cc1 [Compound 11, 3-m-Tolyl-1-p-tolylpropenone]	–	–	16.3 ± 1.9 mg/L (≈ 69 µM)	10.2 ± 1.89 mg/L (≈ 43 µM)	8.73 ± 0.21 mg/L (≈ 36.9 µM)	24.9 ± 1.9 mg/L (≈ 105 µM)	13.9 ± 1.3 mg/L (≈ 59 µM)	< 20 mg/L	–	–	–	–
O=C(/C=C/c1ccccc1)c1ccc(O)cc1 [Compound 2, 1-(4-Hydroxyphenyl)-3-phenylpropenone]	–	–	> 100 mg/L	> 100 mg/L	> 100 mg/L	> 100 mg/L	> 100 mg/L	–	low cytotoxic effects	–	–	–
CN(C)c1ccc(/C=C/C(=O)c2ccccc2)cc1 [Compound 17, 3-(4-Dimethylaminophenyl)-1-phenyl-propenone]	–	–	64.3 ± 5.02 mg/L (≈ 256 µM)	99.3 ± 6.16 mg/L (≈ 395 µM)	> 100 mg/L	> 100 mg/L	> 100 mg/L	–	–	–	–	–
COc1ccc(C(=O)/C=C/c2ccc(N(C)C)cc2)cc1 [Compound 20, 3-(4-Dimethylaminophenyl)-1-(4-methoxy-phenyl)-propenone]	low cytotoxic effects	–	> 100 mg/L	> 100 mg/L	> 100 mg/L	78.8 ± 4.4 mg/L (≈ 280 µM)	> 100 mg/L	–	–	–	–	–
COc1ccc(/C=C/C(=O)c2ccc(OC)cc2)cc1 [Compound 16, 1,3-Bis-(4-Methoxyphenyl)-propenone]	–	–	67.1 ± 4.1 mg/L (≈ 250 µM)	41.4 ± 1.91 mg/L (≈ 154 µM)	> 100 mg/L	> 100 mg/L	60.8 ± 4.22 mg/L (≈ 227 µM)	–	–	–	–	–
CC/C(=C(\c1ccccc1)c1ccc(OCCN(C)C)cc1)c1ccccc1 [tamoxifen, reference compound]	–	–	–	–	–	–	–	–	–	found to increase	reduction in mitochondrial membrane potential dye retention	increase in nuclear chromatin staining
O=C(/C=C/c1ccccc1O)c1ccccc1 [Compound 21, 3-(2-Hydroxyphenyl)-1-phenylpropenone]	–	–	19.8 ± 2.01 mg/L (≈ 88.5 µM)	9.35 ± 1.2 mg/L (≈ 41.7 µM)	11.1 ± 0.4 mg/L (≈ 49.4 µM)	22.6 ± 1.1 mg/L (≈ 101 µM)	17 ± 1.7 mg/L (≈ 75.9 µM)	< 20 mg/L	–	–	–	–
Cc1ccc(C(=O)/C=C/c2ccccc2)cc1 [Compound 3, 3-Phenyl-1-p-tolylpropenone]	–	–	19.1 ± 1 mg/L (≈ 85.9 µM)	13.6 ± 1.01 mg/L (≈ 61.3 µM)	17.3 ± 1.1 mg/L (≈ 77.8 µM)	36.6 ± 1.76 mg/L (≈ 165 µM)	21.3 ± 3.01 mg/L (≈ 96 µM)	–	–	–	–	–
